Assay results reported in patent US9463252B2, “Auristatin drug linker conjugates” (priority 2008, dated 2016).
In brackets after ≈: the same amount, converted by molar mass. Non-standard residues stand in square brackets, D forms with d. Residues, ends and D or L forms follow the SMILES beside them. *: point of attachment. Dolaproine = CO[C@@H]([C@@H]1CCCN1)[C@@H](C)C(=O)O; Hexanoyl(6-maleimido) = O=C1C=CC(=O)N1CCCCCC(=O)*; Dil = CC[C@H](C)[C@H](NC)[C@@H](CC(=O)O)OC; NMeV = CN[C@H](C(=O)O)C(C)C

Legend:
MCF-7 = assay: Cytotoxicity of Auristatin-Peptide-anti-LIV-1 conjugates on LIV-1 positive cells; format: cell-based; conditions: Table 11, ~4 drugs per antibody
Description: (§1) Following the procedure described as Examples 57 and 58, the activities of Auristatin-Peptide-cAC10 conjugates were evaluated on CD30^+ cells, such as Karpas 299, L428, and L540cy. The activities of Auristatin-Peptide-hBU12 conjugates were evaluated on CD19^+ cells such as Ramos, SUDHL-4, and ARH-77. The activities of Auristatin-Peptide-anti-LIV-1 conjugates were evaluated on LIV-1 positive cell lines MCF-7 and SKOV-3. The activities of Auristatin-Peptide-BR96 conjugates were evaluated on Le^y positive cells H3396, RCA, and L2987. All conjugates contain approximately 4 drugs per antibody.

SKOV-3 = assay: as above; format: cell-based; conditions: Table 11, ~4 drugs per antibody
Description: as §1

L540cy = assay: Cytotoxicity of Auristatin-Peptide-cAC10 conjugates on CD30+ cells; format: cell-based, human
Description: (§2) Following the procedure described in Example 57, Auristatin-Dipeptide-cAC10 antibody conjugates were evaluated on CD30+ positive cell lines, Karpas 299, L428 and L540cy. In addition, a control conjugate, cAC10-vc-PABC-MMAF, was used. […] The conjugates contain approximately 4 drugs per antibody.
as §1

Karpas 299 = assay: as above; format: cell-based, human
Description: as §2, §1

ARH-77 = assay: Cytotoxicity of Auristatin-Peptide-hBU12 conjugates on CD19+ cells; format: cell-based; conditions: Table 11, ~4 drugs per antibody
Description: as §1

Ramos = assay: as above; format: cell-based; conditions: Table 11, ~4 drugs per antibody
Description: as §1

SUDHL-4 = assay: as above; format: cell-based; conditions: Table 11, ~4 drugs per antibody
Description: as §1

L428 [1] = assay: Cytotoxicity of Auristatin-Peptide-cAC10 conjugates on CD30+ cells; format: cell-based
Description: as §2, §1

H3396 = assay: Cytotoxicity of Auristatin-Peptide-BR96 conjugates on Le^y positive cells; format: cell-based; conditions: Table 11, ~4 drugs per antibody
Description: as §1

L2987 = assay: as above; format: cell-based; conditions: Table 11, ~4 drugs per antibody
Description: as §1

RCA = assay: as above; format: cell-based; conditions: Table 11, ~4 drugs per antibody
Description: as §1

HCT-116 (CD70−) = assay: Cytotoxicity of Auristatin-Peptide-h1F6 conjugates, CD70- control cell line; format: cell-based
Excerpt: (§3) The conjugates contain approximately 4 drugs per antibody.

Caki-2 = assay: Cytotoxicity of Auristatin-Peptide-h1F6 conjugates, resazurin assay; format: cell-based
Description: as §3
Following the procedure described as Examples 57 and 58, Auristatin-Peptide-h1F6 conjugates were evaluated on CD70^+ cell, such as 786-O, Caki-1, Caki-2, and L428. Conjugates contain approximately 4 drugs per antibody.

786-O = assay: as above; format: cell-based, human; conditions: for IC50 786-0: Table 4
Excerpt: as §3

LP-1 = assay: as above; format: cell-based, human
Excerpt: as §3

U251 = assay: as above; format: cell-based; conditions: Table 4, ~4 drugs/Ab
Excerpt: as §3

UMRC-3 = assay: as above; format: cell-based
Excerpt: as §3

L428 [2] = assay: as above; format: cell-based
Excerpt: as §3

Caki-1 = assay: as above; format: cell-based
Excerpt: as §3

[3] = Tolerability (MTD) of conjugates in mice; format: in vivo, mouse; conditions: h1F6 conjugates; for tolerability at 100 mg/kg dose (in words): single dose 100 mg/kg
Description: The tolerability, measured as maximum tolerated dose (MTD), was determined in mice based on animals' weight loss after treatment. Animals were usually monitored for 14 days. A conjugate is considered to be tolerated at a determined dose if single iv treatment at such dose results in a transient weight loss of no more than 20% of initial body weight of animals and no other signs of toxicity are observed. […] AF-Met-(D)Lys and AF-Asn-(D)Lys conjugates were tolerated at doses as high as 100 mg/kg (FIG. 7). Corresponding conjugates of auristatins containing Methionine (AM) and Tryptophan (AW) at the C-terminal position of the drug were tolerated even better, up to 150 mg/kg (FIG. 8). […] Thus, the Auristatin-Dipeptide Drug Linkers provide ADCs with significant therapeutic window for therapeutic treatment (e.g., cancer).

[4] = tested on: 786-O (renal cell) xenografts; conditions: mouse, ip
Description: The efficacy of AF-Dipeptide-h1F6 conjugates were evaluated in 786-O (renal cell) xenografts. AF-Dipeptide-h1F6 conjugates with an average of 4 drug moieties per antibody were used. 786-O cells were implanted subcutaneously into immunodeficient mice (5×10^6 cells per mouse). Tumor volumes are calculated using the formula (0.5×L×W^2) where L and W are the longer and shorter of two bidirectional measurements.
In a second study, the efficacies of additional Auristatin-Dipeptide-h1F6 conjugates were evaluated in 786-O (renal cell) xenografts. Auristatin-Dipeptide-h1F6 conjugates with an average of 4 drug moieties per antibody were used. 786-O cells were implanted subcutaneously into immunodeficient mice (5×10^6 cells per mouse). Tumor volumes are calculated using the formula (0.5×L×W^2), where L and W are the longer and shorter of two bidirectional measurements.

[5] = tested on: CD70+ positive cell lines; conditions: h1F6 conjugates, ~4 drugs/Ab
Description: Cytotoxicity assays are usually carried out for 96 hours after addition of test compounds. Fifty μl of resazurin dye may be added to each well during the last 4 to 6 hours of the incubation to assess viable cells at the end of culture. Dye reduction can be determined by fluorescence spectrometry using the excitation and emission wavelengths of 535 nm and 590 nm, respectively. For analysis, the extent of resazurin reduction by the treated cells can be compared to that of the untreated control cells.

[6] = tested on: CD30+, CD19+, LIV-1 positive and Le^y positive cells; assay: In vitro activity of conjugates with cAC10, hBU12, anti-LIV-1 and BR96, overall statements; format: cell-based; conditions: conjugates with cAC10, hBU12, Anti-LIV-1, BR96; Table 11
Description: as §1

[7] = Table 11, ~4 drugs per antibody
[8] = Table 5, h1F6 conjugates, ~4 drugs/Ab
[9] = Table 4, h1F6 conjugates, ~4 drugs/Ab
[10] = Table 7, h1F6 conjugates, AF vs MMAF
[11] = Table 8, h1F6 conjugates, D vs L amino acid in second linker position
[12] = Table 9, h1F6-Drug(4) conjugates, mono- vs dipeptide linker
[13] = Table 10, h1F6-Drug(4) conjugates, aryl or alkyl maleimides

## CC[C@H](C)[C@@H]([C@@H](CC(=O)N1CCC[C@H]1[C@H](OC)[C@@H](C)C(=O)N[C@@H](Cc1ccccc1)C(=O)O)OC)N(C)C(=O)[C@@H](NC(=O)[C@H](C(C)C)N(C)C(=O)CCCCCN1C(=O)C=CC1=O)C(C)C [MC-MMAP, Maleimidocaproyl-monomethylauristatin F, reference compound] ({Hexanoyl(6-maleimido)}-[NMeV]V[Dil][Dolaproine]F-OH)
MCF-7
  IC50 MCF-7: 3 ng/mL (≈ 0.00324 µM)
SKOV-3
  IC50 SKOV-3: 2450 ng/mL (≈ 2.65 µM)
L540cy; [7]
  IC50 L540cy: 7 ng/mL (≈ 0.00757 µM)
Karpas 299; [7]
  IC50 Karpas 299: 3 ng/mL (≈ 0.00324 µM)
ARH-77
  IC50 ARH-77: 255 ng/mL (≈ 0.276 µM)
Ramos
  IC50 Ramos: 7 ng/mL (≈ 0.00757 µM)
SUDHL-4
  IC50 SUDHL-4: ~10,000 ng/mL
L428 [1]; [7]
  IC50 L428: 1 ng/mL (≈ 0.00108 µM)
H3396
  IC50 H3396: 42 ng/mL (≈ 0.0454 µM)
L2987
  IC50 L2987: 626 ng/mL (≈ 0.677 µM)
RCA
  IC50 RCA: 7400 ng/mL (≈ 8 µM)

## vc-PABC-MMAF [reference compound]
L540cy; Table 6, ~4 drugs/Ab
  IC50 L540cy: 3 ng/mL
Karpas 299; Table 6, ~4 drugs/Ab
  IC50 Karpas 299: 3 ng/mL
L428 [1]; Table 6, ~4 drugs/Ab
  IC50 L428: 0.5 ng/mL
HCT-116 (CD70−); Table 4, ~4 drugs/Ab
  IC50 HCT-116 (CD70−): >1000 ng/mL
HCT-116 (CD70−); Table 5, ~4 drugs/Ab
  IC50 HCT-116 (CD70−): >1000 ng/mL
Caki-2; [8]
  IC50 Caki-2: 11 ng/mL
786-O; h1F6 conjugates, ~4 drugs/Ab
  IC50 786-0: 7 ng/mL
786-O; [8]
  IC50 786-O: 5 ng/mL
LP-1; [9]
  IC50 LP-1: 22 ng/mL
U251
  IC50 U251: 10 ng/mL
UMRC-3; [9]
  IC50 UMRC-3: 14 ng/mL
L428 [2]; [9]
  IC50 L428: 7 ng/mL
L428 [2]; [8]
  IC50 L428: 4 ng/mL
Caki-1; [9]
  IC50 Caki-1: 3 ng/mL
Caki-1; [8]
  IC50 Caki-1: 12 ng/mL

## MMAF-Asparagine-(D)Lysine-diaminoethane-propionyl maleimide [MMAF-Asn-(D)Lys]
[3]
  tolerability at 100 mg/kg dose (in words): animal loss
786-O; [10]
  IC50 786-O: 9 ng/mL
LP-1; [10]
  IC50 LP-1: 110 ng/mL
UMRC-3; [10]
  IC50 UMRC-3: 19 ng/mL
L428 [2]; [10]
  IC50 L-428: 7 ng/mL
Caki-1; [10]
  IC50 Caki-1: 7 ng/mL

## AF-Proline-(D)Lysine-diaminoethane-propionyl maleimide [AF-Pro-(D)Lys]
[4]
  in vivo efficacy, tumor volume (in words): inactive
HCT-116 (CD70−); Table 4, ~4 drugs/Ab
  IC50 HCT-116 (CD70−): >1000 ng/mL
[5]
  in vitro activity on CD70+ cells (in words): largely inactive
U251
  IC50 U251: 5012 ng/mL
L428 [2]; [9]
  IC50 L428: >10,000 ng/mL
Caki-1; [9]
  IC50 Caki-1: >10,000 ng/mL

## AF-Asparagine-(D)Lysine-diaminoethane-propionyl maleimide [AF-Asn-(D)Lys]
[3]
  tolerability at 100 mg/kg dose (in words): tolerated
L540cy; Table 6, ~4 drugs/Ab
  IC50 L540cy: 4 ng/mL
Karpas 299; Table 6, ~4 drugs/Ab
  IC50 Karpas 299: 44 ng/mL
L428 [1]; Table 6, ~4 drugs/Ab
  IC50 L428: 0.1 ng/mL
HCT-116 (CD70−); Table 4, ~4 drugs/Ab
  IC50 HCT-116 (CD70−): >1000 ng/mL
786-O; h1F6 conjugates, ~4 drugs/Ab
  IC50 786-0: 19 ng/mL
786-O; [10]
  IC50 786-O: 10 ng/mL
786-O; [11]
  IC50 786-O: 10 ng/mL
786-O; [12]
  IC50 786-O: 10 ng/mL
LP-1; [9]
  IC50 LP-1: 417 ng/mL
LP-1; [10]
  IC50 LP-1: 479 ng/mL
LP-1; [11]
  IC50 LP-1: 479 ng/mL
LP-1; [12]
  IC50 LP-1: 479 ng/mL
U251
  IC50 U251: 60 ng/mL
UMRC-3; [9]
  IC50 UMRC-3: 28 ng/mL
UMRC-3; [10]
  IC50 UMRC-3: 32 ng/mL
UMRC-3; [11]
  IC50 UMRC-3: 32 ng/mL
UMRC-3; [12]
  IC50 UMRC-3: 32 ng/mL
L428 [2]; [9]
  IC50 L428: 24 ng/mL
L428 [2]; [10]
  IC50 L-428: 9 ng/mL
L428 [2]; [11]
  IC50 L-428: 9 ng/mL
L428 [2]; [12]
  IC50 L-428: 9 ng/mL
Caki-1; [9]
  IC50 Caki-1: 10 ng/mL
Caki-1; [10]
  IC50 Caki-1: 6 ng/mL
Caki-1; [11]
  IC50 Caki-1: 6 ng/mL
Caki-1; [12]
  IC50 Caki-1: 6 ng/mL

## AW-Methionine-(D)Lysine-diaminoethane-propionyl maleimide [AW-Met-(D)Lys]
MCF-7
  IC50 MCF-7: >10,000 ng/mL
SKOV-3
  IC50 SKOV-3: >10,000 ng/mL
L540cy; [7]
  IC50 L540cy: 17 ng/mL
Karpas 299; [7]
  IC50 Karpas 299: 11 ng/mL
ARH-77
  IC50 ARH-77: >10,000 ng/mL
Ramos
  IC50 Ramos: >10,000 ng/mL
SUDHL-4
  IC50 SUDHL-4: >10,000 ng/mL
L428 [1]; [7]
  IC50 L428: ~10,000 ng/mL
[6]
  in vitro potency (in words): less active
H3396
  IC50 H3396: 146 ng/mL
L2987
  IC50 L2987: 422 ng/mL
RCA
  IC50 RCA: 5217 ng/mL
HCT-116 (CD70−); Table 5, ~4 drugs/Ab
  IC50 HCT-116 (CD70−): >1000 ng/mL
Caki-2; [8]
  IC50 Caki-2: 37 ng/mL
Caki-2; [13]
  IC50 Caki-2: 18 ng/mL
786-O; [8]
  IC50 786-O: 20 ng/mL
786-O; [13]
  IC50 786-O: 17 ng/mL
L428 [2]; [8]
  IC50 L428: >1000 ng/mL
L428 [2]; [13]
  IC50 L428: >1000 ng/mL
Caki-1; [8]
  IC50 Caki-1: 22 ng/mL
Caki-1; [13]
  IC50 Caki-1: 19 ng/mL

## AF-Asparagine-diaminoethane-propionyl maleimide [AF-Asn]
[3]; single dose 50 mg/kg, FIG. 15
  tolerability at 50 mg/kg dose (in words): toxic
786-O; [12]
  IC50 786-O: 10 ng/mL
LP-1; [12]
  IC50 LP-1: 209 ng/mL
UMRC-3; [12]
  IC50 UMRC-3: 28 ng/mL
L428 [2]; [12]
  IC50 L-428: 9 ng/mL
Caki-1; [12]
  IC50 Caki-1: 6 ng/mL
